From patent US8686184B2, “Neprilysin inhibitors” (Theravance, Inc., priority 2011, dated 2014)

Molecular target: T1, human neprilysin (EC 3.4.24.11; NEP) (Homo sapiens, UniProt P08473)
T1 construct: purchased R&D Systems, Minneapolis, Minn; 1182-ZN
Assay: In vitro enzyme inhibition assay at human NEP (fluorogenic peptide substrate)
Type: biochemical
Conditions: recombinant human NEP; 37° C.; substrate Mca-D-Arg-Arg-Leu-Dap-(Dnp)-OH 10 μM; values given as ranges; read-out: pKi values at human NEP (converted)
Experimental: In vitro Assays for the Quantitation of Inhibitor Potencies at Human and Rat NEP, and Human ACE
The inhibitory activities of compounds at human and rat neprilysin (EC 3.4.24.11; NEP) and human angiotensin converting enzyme (ACE) were determined using in vitro assays as described below.
Recombinant human NEP and recombinant human ACE were obtained commercially (R&D Systems, Minneapolis, Minn., catalog numbers 1182-ZN and 929-ZN, respectively). The fluorogenic peptide substrate Mca-D-Arg-Arg-Leu-Dap-(Dnp)-OH (Medeiros et al. (1997) Braz. J. Med. Biol. Res. 30:1157-62; Anaspec, San Jose, Calif.) and Abz-Phe-Arg-Lys(Dnp)-Pro-OH (Araujo et al. (2000) Biochemistry 39:8519-8525; Bachem, Torrance, Calif.) were used in the NEP and ACE assays respectively.
The assays were performed in 384-well white opaque plates at 37° C. using the fluorogenic peptide substrates at a concentration of 10 μM in Assay Buffer (NEP: 50 mM HEPES, pH 7.5, 100 mM NaCl, 0.01% polyethylene glycol sorbitan monolaurate (Tween-20), 10 μM ZnSO4; ACE: 50 mM HEPES, pH 7.5, 100 mM NaCl, 0.01% Tween-20, 1 μM ZnSO4).
Test compounds were assayed over the range of concentrations from 10 μM to 20 pM. Test compounds were added to the enzymes and incubated for 30 minute at 37° C. prior to initiating the reaction by the addition of substrate. Reactions were terminated after 20 minutes of incubation at 37° C. by the addition of glacial acetic acid to a final concentration of 3.6% (v/v).
Plates were read on a fluorometer with excitation and emission wavelengths set to 320 nm and 405 nm, respectively Inhibition constants were obtained by nonlinear regression of the data using the equation (GraphPad Software, Inc., San Diego, Calif.): v=v0/[1+(I/K′)] where v is the reaction rate, v0 is the uninhibited reaction rate, I is the inhibitor concentration and K′ is the apparent inhibition constant.
Compounds of the invention were tested in this assay and found to have pKi values at human NEP as follows.

T1 sequence (P08473 52-750 limits assumed): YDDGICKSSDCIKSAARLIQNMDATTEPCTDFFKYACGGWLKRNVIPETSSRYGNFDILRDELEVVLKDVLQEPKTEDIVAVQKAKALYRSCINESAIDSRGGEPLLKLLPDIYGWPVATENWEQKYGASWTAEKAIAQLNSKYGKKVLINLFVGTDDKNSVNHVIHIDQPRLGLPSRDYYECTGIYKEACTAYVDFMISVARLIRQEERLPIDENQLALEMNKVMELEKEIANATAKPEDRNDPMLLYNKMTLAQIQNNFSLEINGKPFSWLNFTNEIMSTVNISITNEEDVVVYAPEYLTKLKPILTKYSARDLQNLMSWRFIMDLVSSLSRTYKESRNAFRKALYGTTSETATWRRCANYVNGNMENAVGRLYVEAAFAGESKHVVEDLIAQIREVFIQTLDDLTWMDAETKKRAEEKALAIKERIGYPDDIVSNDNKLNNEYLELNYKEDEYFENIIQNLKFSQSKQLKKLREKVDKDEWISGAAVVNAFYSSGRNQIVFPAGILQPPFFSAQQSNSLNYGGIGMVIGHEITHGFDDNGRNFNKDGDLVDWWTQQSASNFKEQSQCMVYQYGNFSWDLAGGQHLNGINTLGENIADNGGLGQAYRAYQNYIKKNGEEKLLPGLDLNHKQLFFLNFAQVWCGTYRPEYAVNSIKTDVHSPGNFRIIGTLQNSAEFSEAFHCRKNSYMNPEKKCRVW

SMILES	Ki [nM]
CC(C)c1ccc(C(=O)N[C@H](Cc2ccccc2)[C@@H](O)C(=O)O)cc1-c1ccccc1C(=O)O [Example 10-17, 5′-((1R,2R)-1-Benzyl-2-carboxy-2-hydroxy-ethylcarbamoyl)-2′-isopropyl-biphenyl-2-carboxylic acid]	1.26 to 10
CCc1ccc(C(=O)N[C@H](Cc2ccccc2)[C@@H](O)C(=O)O)cc1-c1ccccc1C(=O)O [Example 10-19, 5′-((1R,2R)-1-Benzyl-2-carboxy-2-hydroxy-ethylcarbamoyl)-2′-ethyl-biphenyl-2-carboxylic acid]	1.26 to 10
Cc1ccc(C(=O)N[C@H](Cc2ccccc2)[C@@H](O)C(=O)O)cc1-c1ccccc1CC(=O)O [Example 10-20, (2R,3R)-3-[(2′-Carboxymethyl-6-methyl-biphenyl-3-carbonyl)-amino]-2-hydroxy-4-phenyl-butyric acid]	12.6 to 100
O=C(N[C@H](Cc1ccccc1)[C@@H](O)C(=O)O)c1ccc(Cl)c(-c2ccccc2C(=O)O)c1 [Example 10-22, 5′-((1R,2R)-1-Benzyl-2-carboxy-2-hydroxy-ethylcarbamoyl)-2′-chloro-biphenyl-2-carboxylic acid]	1.26 to 10
O=C(N[C@H](Cc1ccccc1)[C@@H](O)C(=O)O)c1cc(O)cc(-c2ccccc2C(=O)O)c1 [Example 10-24, 3′-((1R,2R)-1-Benzyl-2-carboxy-2-hydroxy-ethylcarbamoyl)-5′-hydroxy-biphenyl-2-carboxylic acid]	12.6 to 100
O=C(N[C@H](Cc1ccccc1)[C@@H](O)C(=O)O)c1cc(F)cc(-c2ccccc2C(=O)O)c1 [Example 10-25, 3′-((1R,2R)-1-Benzyl-2-carboxy-2-hydroxy-ethylcarbamoyl)-5′-fluoro-biphenyl-2-carboxylic acid]	1.26 to 10
O=C(N[C@H](Cc1ccccc1)[C@@H](O)C(=O)O)c1cc(Cl)cc(-c2ccccc2C(=O)O)c1 [Example 10-26, 3′-((1R,2R)-1-Benzyl-2-carboxy-2-hydroxy-ethylcarbamoyl)-5′-chloro-biphenyl-2-carboxylic acid]	1.26 to 10
NS(=O)(=O)c1cccc(-c2cccc(C(=O)N[C@H](Cc3ccccc3)[C@@H](O)C(=O)O)c2)c1 [Example 10-30, (2R,3R)-2-Hydroxy-4-phenyl-3-[(3′-sulfamoyl-biphenyl-3-carbonyl)-amino]-butyric acid]	12.6 to 100
O=C(N[C@H](Cc1ccccc1)[C@@H](O)C(=O)O)c1cccc(-c2cccc(-c3nnn[nH]3)c2)c1 [Example 10-31, (2R,3R)-2-Hydroxy-4-phenyl-3-{[3′-(1H-tetrazol-5-yl)-biphenyl-3-carbonyl]-amino}-butyric acid]	12.6 to 100
CCCc1ccc(C(=O)N[C@H](Cc2ccccc2)[C@@H](O)C(=O)O)cc1 [Example 10-33, (2R,3R)-2-Hydroxy-4-phenyl-3-(4-propyl-benzoylamino)-butyric acid]	12.6 to 100
CC(C)c1ccc(C(=O)N[C@H](Cc2ccccc2)[C@@H](O)C(=O)O)cc1 [Example 10-34, (2R,3R)-2-Hydroxy-3-(4-isopropyl-benzoylamino)-4-phenyl-butyric acid]	12.6 to 100
CCCCCc1ccc(C(=O)N[C@H](Cc2ccccc2)[C@@H](O)C(=O)O)cc1 [Example 10-38, (2R,3R)-2-Hydroxy-3-(4-pentyl-benzoylamino)-4-phenyl-butyric acid]	12.6 to 100
O=C(N[C@H](Cc1ccccc1)[C@@H](O)C(=O)O)c1ccc(C2CCCCC2)cc1 [Example 10-40, (2R,3R)-3-(4-Cyclohexyl-benzoylamino)-2-hydroxy-4-phenyl-butyric acid]	12.6 to 100
O=C(N[C@H](Cc1ccccc1)[C@@H](O)C(=O)O)c1ccc(-n2cccc2)cc1 [Example 10-43, (2R,3R)-2-Hydroxy-4-phenyl-3-(4-pyrrol-1-yl-benzoylamino)-butyric acid]	12.6 to 100
Cc1nnnn1Cc1ccc(C(=O)N[C@H](Cc2ccccc2)[C@@H](O)C(=O)O)cc1 [Example 10-45, (2R,3R)-2-Hydroxy-3-[4-(5-methyl-tetrazol-1-ylmethyl)-benzoylamino]-4-phenyl-butyric acid]	12.6 to 100
O=C(N[C@H](Cc1ccccc1)[C@@H](O)C(=O)O)c1ccc(Cn2ccnc2)cc1 [Example 10-46, (2R,3R)-2-Hydroxy-3-(4-imidazol-1-ylmethyl-benzoylamino)-4-phenyl-butyric acid]	12.6 to 100

More lines, now with the values ahead:

Ki [nM]	SMILES
12.6 to 100	O=C(N[C@H](Cc1ccccc1)[C@@H](O)C(=O)O)c1cccc(-c2cc(F)ccc2C(=O)O)c1 [Example 10-14, 3′-((1R,2R)-1-Benzyl-2-carboxy-2-hydroxy-ethylcarbamoyl)-5-fluoro-biphenyl-2-carboxylic acid]
1.26 to 10	Cc1ccc(C(=O)N[C@H](Cc2ccccc2)[C@@H](O)C(=O)O)cc1-c1ccccc1C(=O)O [Example 10-15, 5′-((1R,2R)-1-Benzyl-2-carboxy-2-hydroxy-ethylcarbamoyl)-2′-methyl-biphenyl-2-carboxylic acid]
12.6 to 100	O=C(N[C@H](Cc1ccccc1)[C@@H](O)C(=O)O)c1ccc(N2CCOCC2)c(-c2ccccc2C(=O)O)c1 [Example 10-21, 5′-((1R,2R)-1-Benzyl-2-carboxy-2-hydroxy-ethylcarbamoyl)-2′-morpholin-4-yl-biphenyl-2-carboxylic acid]
12.6 to 100	Cc1cc(C(=O)N[C@H](Cc2ccccc2)[C@@H](O)C(=O)O)cc(-c2ccccc2C(=O)O)c1 [Example 10-27, 3′-((1R,2R)-1-Benzyl-2-carboxy-2-hydroxy-ethylcarbamoyl)-5′-methyl-biphenyl-2-carboxylic acid]
12.6 to 100	O=C(N[C@H](Cc1ccccc1)[C@@H](O)C(=O)O)c1ccc(-c2ccccc2)c(C(=O)O)c1 [Example 10-28, 4-((1R,2R)-1-Benzyl-2-carboxy-2-hydroxy-ethylcarbamoyl)-biphenyl-2-carboxylic acid]
12.6 to 100	O=C(O)c1cc(C(=O)N[C@H](Cc2ccccc2)[C@@H](O)C(=O)O)cc(-c2ccccc2)c1 [Example 10-29, 5-((1R,2R)-1-Benzyl-2-carboxy-2-hydroxy-ethylcarbamoyl)-biphenyl-3-carboxylic acid]
12.6 to 100	CCc1ccc(C(=O)N[C@H](Cc2ccccc2)[C@@H](O)C(=O)O)cc1 [Example 10-32, (2R,3R)-3-(4-Ethyl-benzoylamino)-2-hydroxy-4-phenyl-butyric acid]
12.6 to 100	CCCCc1ccc(C(=O)N[C@H](Cc2ccccc2)[C@@H](O)C(=O)O)cc1 [Example 10-35, (2R,3R)-3-(4-Butyl-benzoylamino)-2-hydroxy-4-phenyl-butyric acid]
12.6 to 100	CC(C)Cc1ccc(C(=O)N[C@H](Cc2ccccc2)[C@@H](O)C(=O)O)cc1 [Example 10-36, (2R,3R)-2-Hydroxy-3-(4-isobutyl-benzoylamino)-4-phenyl-butyric acid]
12.6 to 100	O=C(N[C@H](Cc1ccccc1)[C@@H](O)C(=O)O)c1ccc(C2CC2)cc1 [Example 10-39, (2R,3R)-3-(4-Cyclopropyl-benzoylamino)-2-hydroxy-4-phenyl-butyric acid]
12.6 to 100	CC1=NN(c2ccc(C(=O)N[C@H](Cc3ccccc3)[C@@H](O)C(=O)O)cc2)C(=O)C1 [Example 10-41, (2R,3R)-2-Hydroxy-3-[4-(3-methyl-5-oxo-4,5-dihydro-pyrazol-1-yl)-benzoylamino]-4-phenyl-butyric acid]
12.6 to 100	O=C(N[C@H](Cc1ccccc1)[C@@H](O)C(=O)O)c1ccc(Cn2cccc2)cc1 [Example 10-44, (2R,3R)-2-Hydroxy-4-phenyl-3-(4-pyrrol-1-ylmethyl-benzoylamino)-butyric acid]
12.6 to 100	O=C(N[C@H](Cc1ccccc1)[C@@H](O)C(=O)O)c1ccc(CCn2ccnc2)cc1 [Example 10-47, (2R,3R)-2-Hydroxy-3-[4-(2-imidazol-1-yl-ethyl)-benzoylamino]-4-phenyl-butyric acid]
1.26 to 10	O=C(O)Cc1ccccc1-c1ccc(C(=O)N[C@H](Cc2ccccc2)[C@@H](O)C(=O)O)cc1 [Example 10-48, (2R,3R)-3-[(2′-Carboxymethyl-biphenyl-4-carbonyl)-amino]-2-hydroxy-4-phenyl-butyric acid]
12.6 to 100	O=C(O)Cc1cccc(-c2ccc(C(=O)N[C@H](Cc3ccccc3)[C@@H](O)C(=O)O)cc2)c1 [Example 10-49, (2R,3R)-3-[(3′-Carboxymethyl-biphenyl-4-carbonyl)-amino]-2-hydroxy-4-phenyl-butyric acid]
12.6 to 100	O=C(O)Cc1ccc(-c2ccc(C(=O)N[C@H](Cc3ccccc3)[C@@H](O)C(=O)O)cc2)cc1 [Example 10-50, (2R,3R)-3-[(4′-Carboxymethyl-biphenyl-4-carbonyl)-amino]-2-hydroxy-4-phenyl-butyric acid]
